What was measured:
[1] = tested on: neurotensin receptors; settings: in vivo; cited from earlier work
[2] = tested on: CF-1 mice; settings: mouse, in vivo

| Substance | potency in inhibiting pain relative to neurotensin [1] | motor impairment (rotarod) [2] |
| --- | --- | --- |
| Contulakin-G | significantly more potent than neurotensin | – |
| NGVCCGYKLCHOC [Mar1] | – | do not produce gross motor impairment or impair performance on the rotarod test |

— US7368432B2 (Xenome, Ltd., priority 1999, dated 2008)
